Reference: patent publication US20150174144A1, “TETRACYCLINE COMPOUNDS FOR TREATING NEURODEGENERATIVE DISORDERS” (PARATEK PHARMACEUTICALS, INC., priority 2012, published 2015)
Like-named read-outs stand apart in the source and are kept apart here.

Columns and labels:
[1] = test system: focal cerebral ischemia (temporary MCA occlusion); experiment: Rat stroke model, 90 min temporary MCA occlusion; format: in vivo, Male Wistar rats; details: for Neurological score / Infarct volume (Means ± SD): temporary; for Infarct volume (Means ± SD): 24 hr after MCAO; for Effect on infarct volume: temporary occlusion
[2] = Alkylperoxy radical scavenging assay (AIPH, AE-Trolox oxidation)
Method: In a separate assay, alkylperoxy radicals were generated in vitro using the radical generator AIPH (2,2′-azobis-[2-(2-imidazolyn-2-yl)-propane) and the ability of tetracyclines to scavenge these radicals was determined. […] Also, the ability of Compound 1 and minocycline to specifically scavenge peroxynitrite-carbonate radicals was determined.
In this study, alkylperoxy radicals were generated in vitro using the radical generator AIPH (2,2′-azobis-[2-(2-imidazolyn-2-yl)-propane) and the ability of tetracyclines, such as Compound 1, to scavenge these radicals was determined.
Trolox is a known scavenger of peroxyradicals. Structurally similar to a-tocopherol, Trolox reacts with peroxyradicals via a known mechanism with linear kinetics under excess oxygen conditions. In the presence of a competing antioxidant compound, the rate of Trolox oxidation will change based on the relative rate of oxidation and concentration of the competing antioxidant compound (Huang, et al., J. Agric. Food Chem. 2005, 25, 1841-1856). By measuring the effect of antioxidant concentration on the rate of degradation of Trolox, the relative antioxidant capacity of a compound can be determined. This principle is the basis of the widely used antioxidant capacity assay, ORAC (Huang, et al., J. Agric. Food Chem. 2002, 50, 1815-1821). Unlike ORAC which uses a fluorescent dye indicator, the assay described here directly measures the oxidation of the Trolox derivative, 2-aminoethyl-Trolox (AE-Trolox). This method eliminates interference of the fluorescent dye reaction by tetracycline compounds.
To the first column of a 96-well PCR plate (0.2 mL volume) was added 160 μL of TCWS. One well of the first column would equal one IC50 determination. […] To the remaining wells in columns 2-11 was added 80 μL of AET-WS. Using a multichannel pipettor, column 1 was serially diluted in 2-fold dilutions by removing 80 μL from column 1 and transferring with mixing to column 2. Column 2 was then diluted to column 3 and so on until column 11 where 80 μL of the diluted mixture was removed and discarded. Four wells of row 12 were designated as the 0 test compound/0 AIPH control to which 80 μL of AET-WS was added. One well of row 12 per test compound was designated as the 0 test compound control to which 80 μL of the AET-WS was added.
The plate was covered and incubated for 5 minutes at 37° C. upon which the reaction was initiated by addition of 20 μL of AIPH to columns 1-11 using a multichannel pipettor with mixing. The reaction was initiated similarly to the 0 test compound wells of column 12. To the 0 test compound/0 AIPH control wells was added 20 μL of PB buffer. The plate was incubated at 37° C. for 8 minutes (the reaction is linear for 10 minutes) and quenched by addition of 50 μL of AA to all wells with mixing. The plate was placed on ice for 5 minutes. Quenched assay mixtures were stable at room temperature for at least 24 hours.
Each reaction mixture was analyzed for AE-Trolox by 2D-LCMS on a Shimadzu 2010 equipped with a loading column (Shim-pack MAYI-ODS, 4.6×10 mm) and a gradient column Phenomenex Luna C18(2) column, 3 um, 4.6×50 mm. Using an automated 2-position swithching valve, samples were loaded onto the loading column by Pump C and washed for 1 minute with loading buffer. At 1 minute, the valve was switched to elution position (Position B, reversed flow through loading column) and the samples were eluted through the gradient column. The loading buffer (Buffer C) was 10% acetonitrile in water with 0.2% formic acid and the gradient buffers were water+0.2% formic acid (A buffer) and acetonitrile+0.2% formic acid (B buffer). Typical injection volumes were 30 μL.
From the TIC integration of AE-Trolox and AE-Trolox-d4, a ratio was calculated:
Ratio=AUCAE-Trolox/AUCAE-Trolox-d4
Percent inhibition of AE-Trolox oxidation (measured as disappearance of AE-Trolox) was then determined by:
% Inhibition=[1−((Ratio0−Ratiox)/(Ratioo−Ratiof))]*100

[3] = test system: hippocampal neurons from Fmr1 KO mice; experiment: Dendritic spine development in hippocampal primary cultures; format: cell-based, mouse; details: FX hippocampal primary cultures, 20 μM, 17 hour treatment, 18 DIV
Method: The purpose of this study was to investigate the direct effects of tetracycline compounds, such as minocycline and Compound 1, on dendritic spine development in the cell derived from the mouse model of Fragile X Syndrome (FXS) and their wild-type litter mate control mouse embryos.
The compartmentalized cell culture was used in the experiments. Neuronal primary cultures of the hippocampus at embryonic day 16 (E16) were prepared from Fmr1 KO and WT litter mate control mouse embryos, and three independent cultures were used for the analysis. The in vitro system with […] was used to monitor dendritic spine morphogenesis during a time-course of culture, and immunostaining with synaptophysin was used to distinguish presynaptic boutons. The dendritic spines were usually formed between 7 and 14 days in vitro (DIV). By 14 DIV most dendiritic protrusions were spines; however, their maturation continued until 21 DIV. The effects of tetracycline compounds were evaluated at 18 DIV. Confocal Imagining analysis was performed at the University of Chile imaging center. Quantitative analysis of dentritic spine length, size distribution for dendritic spine heads and morphology of the hippocampal neurons from WT control and Fmr1 KO mice was performed after 17 hour treatment with 20 μM tetracycline compounds or with PBS control.

[4] = test system: Fmr1 KO mice and wild-type littermates; experiment: Elevated Plus Maze test, mouse model of Fragile X Syndrome; format: in vivo; details: 10 mg/kg/d i.p. osmotic pump, 1 week
Method: (§1) The purpose of this study was to test Compound 1 for treating Fragile X Syndrome. This study utilized Fmr1 KO mice, an animal model of Fragile X Syndrome.
(§2) The Fmr1 KO mice (C57BL/6 background) were kindly provided the FRAXA Foundation. Mice were housed in groups of the same genotype in a temperature and humidity controlled room with a 12-h light-dark cycle (lights on 7 am to 7 pm). Testing was conducted during the light phase. Food and water were available ad libitum. Testing was conducted on Fmr1 KO mice and their wild-type littermates. They were housed in commercial plastic cages purchased in the UK. Experiments were conducted in line with the requirements of the UK Animals (Scientific Procedures) Act, 1986.
(§3) The dosing protocol used is shown below. Mice were dosed at 6-7 weeks by intraperitoneal (i.p.) infusion by osmotic pump (0.5 μl/hour) for 1 week. The solution of 0.9% saline was used as a vehicle, and 10 mice were dosed per each group.

Fmr1 KO2 mice = experiment: Contextual fear conditioning, mouse model of Fragile X Syndrome; format: in vivo; details: acute stress conditions
Method: as §1, §2, §3
Freezing as a species-specific response to fear was measured.

MS = MS clinical studies, cited from earlier work
[5] = 20 mg/kg i.v. at 30 min, 6 hr after MCAO
[6] = 40 mg/kg i.v. at 60 min, 6 hr after MCAO
[7] = 40 mg/kg i.v. at 3 hr, 8 hr after MCAO

Row | Structure (SMILES) | Neurological score [1, 5] | Infarct volume (Means ± SD) [1, 5] [mm3] | Neurological score [1, 6] | Infarct volume (Means ± SD) [1, 6] [mm3] | Neurological score [1, 7] | Infarct volume (Means ± SD) [1, 7] [mm3] | Effect on infarct volume ([1]; treatment initiated three hours post occlusion) | Effect on infarct volume ([1]; treatment started at 30 or 60 min after MCA occlusion) | IC50 ([2]; 5 mM AIPH, 37° C., 8 minutes, read-out: IC50, inhibition of AE-Trolox oxidation (alkylperoxy radical scavenging)) [µM] | Percent Trolox Activity ([2]; relative to Trolox) [%] | Trolox Equivalents ([2]; relative to Trolox) | Spine number [3] | Elevated Plus Maze: time spent in the close arm, Mean time ([4]; Fmr1 KO mice) [min] | Elevated Plus Maze: time spent in the close arm, Mean time ([4]; WT mice) [min] | Contextual fear conditioning, learning deficit (freezing) (Fmr1 KO2 mice) | potential side effects (MS) | potential side effects (MS; listed as minocycline)
1 | CCc1cc(N(C)C)c2c(c1O)C(=O)C1=C(O)[C@]3(O)C(=O)C(C(N)=O)=C(O)[C@@H](N(C)C)[C@@H]3C[C@@H]1C2 [Compound 1] | 1.5 ± 0.5 | 139.2 ± 32.2 | 1.3 ± 0.5 | 125.9 ± 49.9 | 1.4 ± 0.5 | 172.8 ± 45.3 | did not demonstrate an ability to reduce infarct volume | statistically significant reductions in infarct volume | 12.6 | 71 | 0.71 | 0.28±0.05 | 259.100 | 227.800 | failed to fully rescue the learning deficit |  | 
2 | CN(C)c1ccc(O)c2c1C[C@H]1C[C@H]3[C@H](N(C)C)C(O)=C(C(N)=O)C(=O)[C@@]3(O)C(O)=C1C2=O [Minocycline, minocycline, reference compound] |  |  |  |  |  |  |  |  |  |  |  |  |  |  |  | Mild Nausea | Mild nausea
